Article PMC12579162, “Synthesized Depside Molecules Suppress the Progression of Colorectal Cancer by Binding VDAC1/PHB/MMP9 Being at the Crossroads of Stemness, Motility, Apoptosis, and Metabolism” (MedComm, 2025)

What was measured:
[1] = tested on: MCF10A cells; test: Spheroid formation assay, MCF10A; type: cell-based, human; conditions: noncancerous MCF10A, 10–14 days
Method: Monolayer cells were separated into single‐cell suspensions at around 70% confluence using a solution of trypsin. After that, the cells were added to N2‐supplemented DMEM/F12 that contained human basal fibroblast growth factor and human recombinant epidermal growth factor. Cells seeded at a density of 5 × 10^3 cells/well in ultra‐low attachment 24‐well plates (Corning Inc., Corning, NY, USA). After 10–14 days of culture, spheres were quantitated by inverted phase contrast microscopy. The relative sphere formation ability was calculated through the IMT iSolution software (IMT iSolution Inc., Northampton, NJ, USA) measuring the pixel intensity of the sphere area randomly in each plate.

[2] = tested on: CT26–iRFP cells; test: CT26–iRFP derived tumor growth model; type: in vivo, BALB/C mice; conditions: 5, 10, or 20 mg/kg intraperitoneally every other day
Method: The antitumor efficacy of VDAC1/PHB/MMP‐binding compound was evaluated using a xenograft model. Six‐week‐old male BALB/C mice were obtained from OrientBio. 1 × 10⁶ CT26 cells were subcutaneously implanted to each mouse. After 1 week inoculation, mice were treated with intraperitoneal injections of either vehicle (DMSO/PBS) or SB4 at a dose of 5, 10 and 20 mg/kg, administered every other day. Tumor volumes and body weight was measured every 2 days. Bioimaging of near‐infrared fluorescence was obtained using a FOBI system (Cellgentek, Osong, Korea) for three time point. After euthanizing the mice, tumor tissues were successfully collected, and the tumor weight was measured for each sample. According to the Guiding Principles in the Care and Use of Animals (DHEW publication, NIH 80–23), the in vivo experiments were performed with the approval of the Sunchon National University Research Institutional Animal Care and Use Committee (SCNU IACUC‐2024‐17).

| Compound | spheroid formation [1] | mouse body weight [2] | tumor volume and weight ([2]; versus control) |
| --- | --- | --- | --- |
| COCCOc1c(C)c(OC(=O)c2c(C)cc(OC)c(C)c2OC)cc(C)c1C(=O)OC [SB4, 4-(Methoxycarbonyl)-3-(2-methoxyethoxy)-2,5-dimethylphenyl 2,4-dimethoxy-3,6-dimethylbenzoate] | did not change the inhibition or induction of spheroid formation in a statistically significant way | did not influence mouse body weight | significantly reduced both tumor volume and weight in a dose‐dependent manner |
| COCCCOc1c(C)c(OC(=O)c2c(C)cc(OC)c(C)c2OC)cc(C)c1C(=O)OC [SB5, 4-(Methoxycarbonyl)-3-(3-methoxypropoxy)-2,5-dimethylphenyl 2,4-dimethoxy-3,6-dimethylbenzoate] | did not change the inhibition or induction of spheroid formation in a statistically significant way |  |  |
